Reference: US10034828B2, “Hair treatment systems and methods using peptides and other compositions” (priority 2013, dated 2018)
Values belong to the compound of their own block, whether it stands above or below them.

How the values were obtained:
[1] = Nitric oxide absorption by carriers (weight gain on bubbling NO gas); type: physicochemical; details: NO gas bubbled 40 hr, 25 ° C.
Experimental: This example illustrates one technique for preparing a composition in accordance with one embodiment of the invention. An accurate amount of a carrier (HNC 167-62) (see below) was introduced into a system. The carrier weight used in these experiments was approximately 250 g and the vessel size was 500 ml. The vessel was equipped with a mechanical stirrer, gas inlet, and gas outlet and was previously purged with argon for about an hour. The temperature of the carrier was kept at about 25-30° C. NO gas regulated at 5 psi (1 psi is about 6,900 Pa) and was then introduced at a controlled rate of about 1 bubble/s with continuous stirring. […] After 6 hours, the weight of the carrier had increased by 0.15%, by 12 hours by 0.25%, and by 24 hours by 0.56%. These increases in weight were believed to be significant considering the relative small molecular weight of NO versus the carrier. […] The carrier also can solidify upon cooling if the carrier is initially a solid at lower temperature.
Each carrier was taken in a 500 mL three necked flask equipped with a mechanical stirrer, gas inlet and a gas outlet. The system was purged with argon for one hour at room temperature (25° C.). Then nitric oxide gas was bubbled into the system. Then, nitric oxide gas was bubbled through carrier for stipulated amount of time. The changes in weight and color were noted. […]

[2] = Carrying of TRH peptide by carrier formulations; type: physicochemical; details: TRH concentration of 5.0 mg/cc
Excerpt: Any of the above compositions are effective as carriers for peptides and nitric oxide.

[3] = system: micro-capillary blood flow to skin; assay: Laser Doppler capillary blood flow in humans, 10,000 ppm NO in closed Hilltop chamber (Example 5); type: in vivo, human; details: applied to the skin at 1/10% in alcohol
Excerpt: The formulation used in these studies contained nitric oxide dispersed in a lipid matrix. […] Nitric oxide is a very rapid acting molecule, and these studies used a system that employed laser Doppler with a covered chamber. The formulation was placed into the chamber and then attached to the skin by an adhesive layer on the covering. This provided a stable measuring device as determined by multiple normal evaluations of the capillary blood flow without treatment of nitric oxide.
A known positive control, methyl nicotinate, was applied to the skin at a concentration of 1/10% in alcohol. […] The vascular dynamics are such that when the blood vessels dilate physical parameters follow Bernoulli's law. […] The laser Doppler device accurately measured these parameters.
In these studies, the participants were healthy females aged 30 to 55 years. They were in good health as determined by the medical history and were not taking any prescription medications. All study participants read and signed the informed consent statement prior to any study procedures being performed. […]
A Moor Instruments DRT4 Laser Doppler Blood Flow Monitor (Devon, England) was used in these studies. The laser Doppler technique measured blood flow in the microcapillaries of the skin that are close to the skin surface and the blood flow in underlying arterioles and venules that help to regulate skin temperature. […]

[4] = system: capillary circulation of the skin; assay: Laser Doppler circulation study in five human subjects (Example 8); type: in vivo; details: positive control formulation containing 0.1% methyl nicotinate
Excerpt: This example illustrates delivery of nitric oxide formulations to five human subjects, using procedures and formulations similar to those discussed in Example 5. Each person served as their own control for the testing. A Moor Instruments Laser Doppler was used to determine circulation. […] The formulations used produce positive, almost immediate results when applied to the skin which, in these studies, was manifested by vasodilatation of the cutaneous vascular system.
For each subject, the following creams were applied: a negative control formulation (containing no NO), 0.010 gram of a 10,000 ppm NO formulation, 0.020 gram of a 10,000 ppm NO formulation, and a positive control formulation containing 0.1% methyl nicotinate. The formulations were prepared using procedures similar to those discussed in Example 1.

SMILES: OCCCO [1,3-Propanediol, 1,3-propanediol]
- % Wt. gain [1]: 0.09%
- Wt. Gain g [1]: 0.16 g

- carrying of the peptide by formulations HNC 156-43, HNC 156-50, HNC 156-47, HNC 159-136 [2]: effectively carried
SMILES: NC(=O)[C@@H]1CCCN1C(=O)[C@H](Cc1cnc[nH]1)NC(=O)[C@@H]1CCC(=O)N1 [TRH, thyrotropin-releasing hormone]

SMILES: COC(=O)c1cccnc1 [methyl nicotinate]
- laser Doppler response to positive control [3]: rapid response typical of the vasodilator
- vasodilatation [4]: vasodilatation was observed
